Results on eight molecules are retold here after US10329542B2, “HBV RNAse H purification and enzyme inhibitors” (Saint Louis University, priority 2012, dated 2019).

pIC50: −log10 of the molar value. Like-named read-outs stand apart in the source and are kept apart here.

Data set [1] addresses T1, HBV genotype D RNAseH (HRHPL) (Hepatitis B virus genotype D subtype ayw, UniProt P03156, INS679M).
T1 construct: HRHPL contains HBV genotype D (Genbank V01460) polymerase residues 684-845; made in house; host or cells: E. coli BL21 codon+
The experiment in a line: Oligonucleotide-directed RNAseH cleavage assay, HBV genotype D. Type of data set: biochemical. As to conditions: for Activity vs. HBV Biochemical vs. gtD: class by concentration giving inhibition (10, 20, 60 μM); for Residual activity at 10 uM, Genotype D: ± standard deviation, 3 to 7 replicates.

The target in data set [2] is T2, human RNAseH1 (Homo sapiens, UniProt O60930).
T2 construct: hexahistidine (N); made in house; host or cells: E. coli BL21 codon+
T2 sequence (O60930 1-286): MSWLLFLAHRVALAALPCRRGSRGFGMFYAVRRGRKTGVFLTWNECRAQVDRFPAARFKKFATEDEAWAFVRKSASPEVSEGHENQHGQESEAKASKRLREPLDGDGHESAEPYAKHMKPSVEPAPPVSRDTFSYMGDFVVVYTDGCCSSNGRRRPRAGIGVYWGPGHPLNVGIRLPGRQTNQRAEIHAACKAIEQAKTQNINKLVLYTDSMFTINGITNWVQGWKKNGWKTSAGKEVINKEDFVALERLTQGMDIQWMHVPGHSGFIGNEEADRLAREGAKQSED
In words: Oligonucleotide-directed RNAseH assay, recombinant human RNAseH1. Type of data set: biochemical. As to conditions: class by concentration giving inhibition (10, 20, 60 μM). The gist of the method:
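His-tagged human RNAseH1, expressed in E. coli and titrated to an activity matching the HBV enzyme, was incubated with internally 32P-labelled RNA plus a complementary DNA oligonucleotide. Reactions ran for 90 min at 42 °C in 65 mM Tris pH 8.0, 190 mM NaCl and 5 mM MgCl2, with 1% DMSO. Cleavage was measured by SDS-PAGE autoradiography.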

In data set [3] the test system is HBV. In words: HBV genomic replication assays (Table 2). Format: cell-based, Hepatitis B virus. As to conditions: class by active concentration. The gist of the method: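 Huh7 cells transfected with HBV plasmid received compound at 10 or 50 μM, refreshed every 1-2 days. Core-particle DNA isolated 4-5 days post-transfection was analysed by Southern blot, with or without RNaseH. For the screen, replicating cells got 60, 20 or 6.7 μM, refreshed days 1-2, and plus-strand DNA was quantified on day 3 by cross-gap TaqMan PCR.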

Data set [4] has as its system HBV. The experiment in a line: Quantitative PCR screen of HBV plus-polarity DNA accumulation. Type of data set: cell-based, Hepatitis B virus. To be noted: 60, 20, or 6.7 μM; DNA isolated day 3. The protocol: This assay was employed to screen 7 compounds for their ability to suppress HBV replication (FIG. 17). […] Fresh medium containing compound was provided on days 1 and 2, and capsid-associated HBV DNAs were isolated on day 3. HBV plus-strand DNAs were measured using the cross-gap TaqMan PCR assay.
Plus-polarity preferential quantitative TaqMan PCR for the HBV DNA was conducted employing forward primer […] […] PCR was conducted on purified HBV capsid-derived nucleic acids for 40 cycles of 95° C. for 15 sec. and 65° C. for 1 min. employing the TaqMan universal PCR master mix (Applied Biosystems). Results were standardized against serial dilutions of cloned HBV DNA. The EC50 was estimated by linear regression of the real-time PCR data.

Data set [5] deals with rat hepatocytes. To be noted: cited from earlier work.
Data set [6] relates to HBV genotype C RNAseH. In words: Oligonucleotide-directed RNAseH cleavage assay, HBV genotype C. Format: biochemical, Hepatitis B virus. As to conditions: class by concentration giving inhibition (10, 20, 60 μM). As for the experimental part:
(§1) For the oligonucleotide-directed RNAseH cleavage assay (Gong et al., 2001), 6 μl protein extract (typical protein concentration 2.8 mg/ml) was mixed with 0.5 μg internally ^32P-labeled DRF+ RNA (nucleotides 2401-2605 of the duck HBV genome plus 60 nucleotides of flanking sequences from pBluescript) and 3 μg oligonucleotide D2507- or its corresponding negative control D2526+ on ice in 20 μl under the conditions in Table 1. Some reactions in FIG. 5 employed oligonucleotide D2543M-Sal or its D2453+ negative control as indicated. The reactions were incubated at 42° C. for 90 min. and terminated by addition of Laemmli protein loading buffer and boiling. The samples were resolved by 12% SDS-PAGE, the gels were stained with Coomassie blue to monitor protein loading, and labeled RNA was detected by autoradiography. Candidate inhibitors were dissolved in DMSO and added at the indicated concentrations during assembly of the reactions. Control reactions lacking the compounds contained DMSO as a vehicle control. The RNAseH autoradiograms were scanned and quantified with ImageJ. The oligonucleotides were: D2526+([…]; SEQ ID NO:8), D2507-([…]; SEQ ID NO:9), D2453+([…]; SEQ ID NO:10), and D2543M-Sal ([…]; SEQ ID NO:11).
Incremental improvements were developed in extraction of the HBV RNAseH from the bacterial cell pellets since the data were generated for Examples 1 and 2. Key among these was shifting from using a cup sonicator to a probe sonicator and reducing the duration of the sonication period from 3×60 second bursts to 3×20 second bursts. When the […] genotype C clone that had inconsistent activity under the old extraction conditions (FIG. 6C) was isolated under these conditions, it became consistently and robustly active (FIG. 16).

For data set [7], the target named is HIV-1 RNAseH (Human immunodeficiency virus type 1 group M subtype B, UniProt P04585). To be noted: read-out: IC50 against the HIV RNAseH; cited from earlier work.
The conditions of data set [8]: mice and rats, doses 10 to 58 times those used in humans; cited from earlier work.
Data set [9] deals with HBV genotype H RNAseH. In words: Oligonucleotide-directed RNAseH cleavage assay, HBV genotype H. As to conditions: 10 μM; ± standard deviation, 3 to 7 replicates. Format: biochemical, Hepatitis B virus. As for the experimental part:
as §1
Oligonucleotide-directed RNAseH cleavage assays (Gong et al., 2001) were performed as described (Tavis et al., 2013). Briefly, HBV RNAseH extracts were mixed with a 264 nt-long internally ^32P-labeled RNA plus an excess of a complementary DNA oligonucleotide or its inverse-complement as a negative control in a final concentration of 65 mM Tris pH 8.0, 190 mM NaCl, 5 mM MgCl2, 5 mM dTT, 0.05% NP40, and 6% glycerol. βTJ was dissolved in DMSO and added at the indicated concentrations; the final concentration of DMSO in all reactions was 1%. The reactions were incubated at 42° C. for 90 min. and terminated by addition of Laemmli protein electrophoresis buffer. The samples were resolved by SDS-PAGE, labeled RNA was detected by autoradiography, the autoradiograms were scanned, and the RNA cleavage products were quantified with ImageJ (National Institutes of Health). IC50 values were calculated by non-linear regression using GraphPad Prism (GraphPad Software, Inc.).

Data set [10] addresses T3, chimeric HBV:HIV RNAseH HHC1 (Hepatitis B virus genotype D subtype ayw, UniProt P03156, DELINS787-795[…]/INS679M).
T3 construct: HHC1 is an HRHPL derivative; made in house; host or cells: E. coli BL21 codon+
In words: Oligonucleotide-directed RNAseH cleavage assay, chimeric HHC1. Type of data set: biochemical. As to conditions: 10 μM; ± standard deviation, 3 to 7 replicates.
Excerpt: pCMV-HBV-LE-(CMV-HBV) is an HBV over-length genomic expression vector containing 1.2 copies of the HBV(adw2) genome (Genbank X02763.1) downstream of the CMV promoter cloned into pBS (Promega). Surface protein expression from this vector is ablated by mutating the preS and S open reading frames. pCMV-HBV(genotype D) is an analogous HBV genomic expression construct and was a gift from Dr. Shuping Tong (Brown University). For bacterial expression, codon-optimized cDNA sequences for HRHPL (genotypes A, B, C, D, and H), and noncodon-optimized sequences for HHC1 and HHC2 were cloned by gene synthesis (Genscript) between the NcoI and EcoRI sites into pTrcHis2B (Invitrogen) with a C-terminal hexahistidine tag. HRHPL contains HBV genotype D (Genbank V01460) polymerase residues 684-845. HHC1 is an HRHPL derivative in which HBV polymerase residues 800-808 were replaced with HIV residues corresponding to the RNAseH helix D ([…]; SEQ ID NO:6). HHC2 is an HRHPL derivative in which HBV polymerase residues 800-845 were replaced with HIV residues corresponding to the RNAseH helix D to the C-terminus ([…]; SEQ ID NO:7). The human RNAseH1 gene (NP_002927.2) was cloned with an N-terminal hexahistidine-tag between the BamHI and XhoI sites of pRsetB (Invitrogen) by gene synthesis.
as §1

In data set [11] the target is HCV RNA-directed RNA polymerase (Hepatitis C virus genotype 1a, UniProt P27958). In words: Primed homopolymeric RNA (poly-G) synthesis assay. Type of data set: biochemical. To be noted: 10 μM. The protocol: FIGS. 9A-C. Specificity of anti-HBV RNAseH compounds. (FIG. 9A) Inhibition of HBV genotype D RNAseH by irrelevant compounds at 10 μM in the oligonucleotide-directed RNAseH assay. Compound #4 was employed as an example HBV RNAseH inhibitor. […] The ability of compounds #5, 6 and 8 to inhibit production of poly-G by the HCV RNA-directed RNA polymerase was measured in a primed homopolymeric RNA synthesis assay (Cao, et al., 2011. The compounds were employed at 10 μM. DMSO, vehicle control. (FIG. 9C) Dose-responsiveness of HBV RNAseH inhibition. The effects of compounds #6, 8, and 12 on the RNAseH activity of HRHPL (genotype D) were measured at concentrations ranging from 0.5 to 50 μM. The dose-response profile is plotted for compound #12.

Setting [12] is: rat hepatocytes, Nakagawa and Tayama, 1998.

As for `O=c1cccccc1O` [Compound 53, Tropolone], the “Activity vs. HBV Biochemical vs. gtD” value in data set [1] is listed as “++ (++ inhibition at 20 μM)”. In addition, the “Activity vs. human RNAseH1” value in [2] is listed as “− (− no inhibition at 60 μM)”. In addition, the “Activity vs. HBV Genomic Replication” value in data set [3] is on record as “− (− no activity at 60 μM)”. Besides, in [4], the “Suppression of HBV plus-polarity DNA accumulation” value (from here on “Suppression”) was “inhibited accumulation of HBV plus-polarity DNA to lesser extents”. Moreover, the Mitochondrial toxicity entry in data set [5] was “mitochondrial toxicity has been reported”.
One may read the pIC50 as the IC50 on a negative log10 scale, so that one unit is a factor of ten. Take Manicol [Compound 56]: the “Activity vs. HBV Biochemical vs. gtD” value in [1] is listed as “+++ (+++ inhibition at 10 μM)”. For the same molecule, the “Activity vs. HBV Biochemical vs. gtC” value in data set [6] is “+++ (+++ inhibition at 10 μM)”. Also, the “Activity vs. human RNAseH1” value in [2] was “− (− no inhibition at 60 μM)”. Also, in data set [3], the “Activity vs. HBV Genomic Replication” value is listed as “+ (+, activity detectable at >10 μM)”. The “Suppression” value in [4] is listed as “inhibited accumulation of HBV plus-polarity DNA to lesser extents”. Further, in data set [7], the negative-log IC50 (pIC50) was 4.22.
Take `CC(C)c1ccccc(=O)c1O` [α-thuaplicin, reference compound]: the pIC50 in [7] was 4.30.
For `Nc1ccn([C@H]2CS[C@@H](CO)O2)c(=O)n1` [Lamivudine, 2′,3′-dideoxy-3′-thiacytidine], the Carcinogenicity or mutagenicity result in data set [8] is listed as “no evidence of carcinogenicity or mutagenicity”.
On to `CC(C)c1cccc(O)c(=O)c1` [Compound 47, beta-thujaplicin], for which the “Activity vs. HBV Biochemical vs. gtD” value in data set [1] is recorded as “+++ (+++ inhibition at 10 μM)”. Besides, the “Activity vs. HBV Biochemical vs. gtC” value in [6] is “− (− no inhibition at 60 μM)”. Moreover, the “Activity vs. human RNAseH1” value in data set [2] was “− (− no inhibition at 60 μM)”. For the same molecule, the “Activity vs. HBV Genomic Replication” value in data set [3] was “− (− no activity at 60 μM)”. In addition, the “Suppression” value in data set [4] is recorded as “did not suppress HBV plus-polarity DNA accumulation”. Moreover, the Mitochondrial toxicity entry in data set [5] (setting [12]) was “mitochondrial toxicity has been reported”.
Turning to `Cc1cc(C)c(C#N)c(=N)o1` [Compound 5], in data set [1], the “Residual activity at 10 uM, Genotype D” value is on record as 42 ± 15 Percent DMSO control and the “Activity vs. HBV Biochemical vs. gtD” value was “+ (+ inhibition at 60 μM)”. Also, the “Residual activity at 10 uM, Genotype H” value in data set [9] turned out to be 76 ± 14 Percent DMSO control. In addition, the “Residual activity at 10 uM, HHC1” value in data set [10] is reported as 36 ± 6 Percent DMSO control. Further, the “Activity vs. HBV Genomic Replication” value in data set [3] is listed as “− (− no activity at 60 μM)”. Also, the “Inhibition of poly-G production by HCV RNA polymerase” value in [11] is on record as “do not significantly inhibit”.
One may read the Inhibition as the change of the read-out against control, counted positive when it falls. High values mean a response far below the control, low ones a response near the control. `CCOC(=O)c1sc(NC(=O)CSc2nnc(Cc3ccccc3)o2)c(C#N)c1C` [Compound 6]: in data set [1], the “Residual activity at 10 uM, Genotype D” value stood at 40 ± 16 Percent DMSO control and the “Activity vs. HBV Biochemical vs. gtD” value was “+ (+ inhibition at 60 μM)”. This molecule also displayed an Inhibition in data set [1] (at 50 μM) of 75%. Further, in data set [1] (between 3 and 40 μM), the Inhibition plateau is listed as 20-30%. For the same molecule, the “Residual activity at 10 uM, Genotype H” value in [9] came out at 81 ± 24 Percent DMSO control. In addition, the “Residual activity at 10 uM, HHC1” value in data set [10] is recorded as 55 ± 23 Percent DMSO control. In [3], the “Activity vs. HBV Genomic Replication” value was “− (− no activity at 60 μM)”. The “Inhibition of poly-G production by HCV RNA polymerase” value in [11] is on record as “do not significantly inhibit”.
`O=c1cccccc1` [tropone, reference compound]: the Mitochondrial toxicity entry in [5] (setting [12]) is given as “mitochondrial toxicity has been reported”.
